From patent publication US20060073112A1, “Method of preventing hydrogen sulfide odor generation in an aqueous medium” (priority 2004, published 2006) come the findings set out here.

The test system of assay [1] is sulfate reducing bacteria. Kind of assay: Inhibition of hydrogen sulfide generation by sulfate reducers in serum bottles. It counts as cell-based. Particulars: 48 hours incubation; for Sulfide Formation Level Sample A: replicate bottle A; for Sulfide Formation Level Sample B: replicate bottle B; for Sulfide Formation Level Sample C: replicate bottle C. The method, then:
The test protocol was as follows: 100 mL serum bottles were filled with synthetic nutrient medium, then stoppered, capped, and autoclaved, and allowed to cool to at least 35° C. Using a 1 mL syringe with needle, the treatment was added at desired dosages to prepared serum bottles (triplicates of each dosage). No treatment was added for baseline controls. Nine baseline serum bottles were used. Next, a 10^10 cells/ml concentration of the sulfate reducers was prepared (using autoclaved synthetic nutrient medium) inside an anaerobic chamber. Using a 1 ml syringe with needle, 0.1 ml of the prepared sulfate reducers culture was added to each serum bottle. The bottles were then incubated at the desired temperature for 48 hours. The baseline dissolved sulfide levels were then measured to determine if the samples were ready for efficacy analysis. Using a 30 mL syringe with needle, 30 mL of sample was removed from each serum bottle. About 25 mL of the sample was added to a 30 mL bottle containing 0.125 mL zinc acetate solution, followed by adding 1 mL of 1N NaOH. The sulfide in the fixed sample was then measured. If the control sample sulfide levels were >10 ppm, then the whole series of test vials was evaluated for generated sulfide. The remaining 5 mL of sample in the syringe was used for a final pH determination.

For assay [2], the system named is sulfate reducing bacteria. Kind of assay: Sulfate reducing bacteria viability (SRB/ml) after treatment. Type of assay: cell-based. The method, then:
The test protocol was as follows: 100 mL serum bottles were filled with synthetic nutrient medium, then stoppered, capped, and autoclaved, and allowed to cool to at least 35° C. Using a 1 mL syringe with needle, the treatment was added at desired dosages to prepared serum bottles (triplicates of each dosage). No treatment was added for baseline controls. Nine baseline serum bottles were used.
Next, a 10^10 cells/ml concentration of the sulfate reducers was prepared (using autoclaved synthetic nutrient medium) inside an anaerobic chamber. Using a 1 ml syringe with needle, 0.1 ml of the prepared sulfate reducers culture was added to each serum bottle. The bottles were then incubated at the desired temperature for 48 hours.

Turning to `Sc1nc2ccccc2s1` [2-mercaptobenzothiazole], the “Sulfide Formation Level Sample A” value in assay [1] (inhibitor dose conc. 25 ppm), in assay [1] (inhibitor dose conc. 50 ppm) and in assay [1] (inhibitor dose conc. 100 ppm) was 0 (0 = <0.1 ppm Sulfide) throughout. The “Sulfide Formation Level Sample B” value in assay [1] (inhibitor dose conc. 25 ppm), in assay [1] (inhibitor dose conc. 50 ppm) and in assay [1] (inhibitor dose conc. 100 ppm) was 0 (0 = <0.1 ppm Sulfide) in each case. Also, the “Sulfide Formation Level Sample C” value in assay [1] (inhibitor dose conc. 25 ppm), in assay [1] (inhibitor dose conc. 50 ppm) and in assay [1] (inhibitor dose conc. 100 ppm) was 0 (0 = <0.1 ppm Sulfide) in each case. For the same compound, the SRB/ml in assay [2] (inhibitor dose conc. 25 ppm) is 10,000 SRB/ml; in assay [2] (inhibitor dose conc. 50 ppm), 100,000 SRB/ml; in assay [2] (inhibitor dose conc. 100 ppm) it was 10,000 SRB/ml.
Regarding `NCCO` [monoethanolamine], the “Sulfide Formation Level Sample A” value in assay [1] (inhibitor dose conc. 25 ppm) is 1+ (1+ = 0.1-1.0 ppm Sulfide); in assay [1] (inhibitor dose conc. 50 ppm) it was 1+ (1+ = 0.1-1.0 ppm Sulfide); in assay [1] (inhibitor dose conc. 100 ppm), 0 (0 = <0.1 ppm Sulfide). The “Sulfide Formation Level Sample B” value is listed as 1+ (1+ = 0.1-1.0 ppm Sulfide) in assay [1] (inhibitor dose conc. 25 ppm), 1+ (1+ = 0.1-1.0 ppm Sulfide) in assay [1] (inhibitor dose conc. 50 ppm) and 0 (0 = <0.1 ppm Sulfide) in assay [1] (inhibitor dose conc. 100 ppm). The “Sulfide Formation Level Sample C” value was 1+ (1+ = 0.1-1.0 ppm Sulfide) in assay [1] (inhibitor dose conc. 25 ppm), 0 (0 = <0.1 ppm Sulfide) in assay [1] (inhibitor dose conc. 50 ppm) and 0 (0 = <0.1 ppm Sulfide) in assay [1] (inhibitor dose conc. 100 ppm). The SRB/ml in assay [2] (inhibitor dose conc. 25 ppm), in assay [2] (inhibitor dose conc. 50 ppm) and in assay [2] (inhibitor dose conc. 100 ppm) was 100,000 SRB/ml each time.
As to `CC[C@@]1([C@@H]2O[C@@H]([C@H]3O[C@@](O)(CO)[C@H](C)C[C@@H]3C)C[C@@H]2C)CC[C@H]([C@]2(C)CC[C@]3(C[C@H](O)[C@@H](C)[C@@H]([C@@H](C)[C@@H](OC)[C@H](C)C(=O)O)O3)O2)O1` [monensin, reference compound], the “Sulfide Formation Level Sample A” value in assay [1] (inhibitor dose conc. 25 ppm) is listed as 1+ (1+ = 0.1-1.0 ppm Sulfide); in assay [1] (inhibitor dose conc. 50 ppm), 0 (0 = <0.1 ppm Sulfide); in assay [1] (inhibitor dose conc. 100 ppm) it was 0 (0 = <0.1 ppm Sulfide). In addition, the “Sulfide Formation Level Sample B” value in assay [1] (inhibitor dose conc. 25 ppm) was 1+ (1+ = 0.1-1.0 ppm Sulfide); in assay [1] (inhibitor dose conc. 50 ppm) it was 0 (0 = <0.1 ppm Sulfide); in assay [1] (inhibitor dose conc. 100 ppm), 0 (0 = <0.1 ppm Sulfide). The “Sulfide Formation Level Sample C” value in assay [1] (inhibitor dose conc. 25 ppm), in assay [1] (inhibitor dose conc. 50 ppm) and in assay [1] (inhibitor dose conc. 100 ppm) was 0 (0 = <0.1 ppm Sulfide) each time. In addition, the figures for the SRB/ml in assay [2] (inhibitor dose conc. 25 ppm), in assay [2] (inhibitor dose conc. 50 ppm) and in assay [2] (inhibitor dose conc. 100 ppm) were 1,000,000 SRB/ml, 100,000 SRB/ml and 10,000 SRB/ml, respectively.
